“And” between values parts separate entries of the source, which are not always exact repeats. Equal entries are not always repeated.
Legend:
TBK1 = assay: RT-qPCR of Tbk1 in eWAT and BAT; format: in vivo; conditions: db/db mice, both doses of BJ
Source text: Total RNA was isolated from 3T3-L1 cells and adipose tissue homogenates using Trizol reagent (Invitrogen, Carlsbad, CA, USA). RNA concentration and purity were examined at 260/280 nm using a nanodrop spectrophotometer (NanoDrop One, Thermo Fisher Scientific, USA). The total RNA was reverse transcribed to cDNA using the EasyScript All-in-One First-Strand cDNA Synthesis SuperMix for qPCR kit (TransGen Biotech, Beijing, China). The quantitative reverse transcription polymerase chain reaction was performed using TransStart Top Green qPCR SuperMix (TransGen Biotech, Beijing, China) and an Applied Biosystems 7500 RealTime PCR System (Life Technologies, USA). Relative expression levels were normalized to gapdh expression and quantified using the 2^-ΔΔCt method. The primers were synthesized by Shanghai Sangon Biotech, and the detailed primer sequences were shown in Supplementary Table 5 in the supplementary materials.

IKKε = target: T1, IKKε (Mus musculus, UniProt Q9R0T8); assay: IKKε activity assay in BAT; format: in vivo, mice; design: The adipose tissue was ultrasound-crushed in PBS buffer solution (1:9 w/v) to prepare the tissue homogenate; from tissue; host or cells: epididymal white adipose tissue (eWAT) and brown adipose tissue (BAT) of C57BLKS WT and db/db mice; conditions: for the expression of IKKε in BAT of db/db mice: Figure 6l, individual values
T1 sequence (Q9R0T8 1-717): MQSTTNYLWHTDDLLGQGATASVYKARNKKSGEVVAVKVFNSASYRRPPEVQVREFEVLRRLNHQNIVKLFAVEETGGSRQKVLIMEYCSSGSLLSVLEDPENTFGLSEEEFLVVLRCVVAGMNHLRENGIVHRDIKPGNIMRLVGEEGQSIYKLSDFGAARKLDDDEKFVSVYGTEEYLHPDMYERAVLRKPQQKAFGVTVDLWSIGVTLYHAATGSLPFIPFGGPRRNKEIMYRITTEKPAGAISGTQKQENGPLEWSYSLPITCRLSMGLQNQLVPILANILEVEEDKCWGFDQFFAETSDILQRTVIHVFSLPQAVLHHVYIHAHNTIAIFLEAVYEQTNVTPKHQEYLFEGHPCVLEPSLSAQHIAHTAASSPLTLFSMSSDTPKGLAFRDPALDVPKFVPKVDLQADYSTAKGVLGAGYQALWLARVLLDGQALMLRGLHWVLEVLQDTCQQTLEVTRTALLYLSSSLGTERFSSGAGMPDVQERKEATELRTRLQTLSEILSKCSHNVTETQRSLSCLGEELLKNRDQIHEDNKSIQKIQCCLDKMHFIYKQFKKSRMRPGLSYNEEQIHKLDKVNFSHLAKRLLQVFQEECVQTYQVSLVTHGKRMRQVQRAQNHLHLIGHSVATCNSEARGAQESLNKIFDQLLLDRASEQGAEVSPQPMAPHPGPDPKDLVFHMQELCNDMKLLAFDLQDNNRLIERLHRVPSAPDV
Description: The adipose tissue was ultrasound-crushed in PBS buffer solution (1:9 w/v) to prepare the tissue homogenate. The tissue homogenate was centrifuged at 5000 × g for 10 min, and the supernatant was taken for detection. Briefly, samples or standards were added to the microplates pre-coated with IKKε antibody or TBK1 antibody. Then horseradish peroxidase (HRP) labeled antibody was added and incubated at 37 °C for 60 min. After thorough washing, the 3,3′,5,5′-tetramethylbenzidine (TMB) substrate was used for color development, and the absorbance (OD value) was determined at 450 nm.

Compound: CC(C)Cc1ccc(C(C)C(=O)[O-])cc1.COc1ccc2cc3[n+](cc2c1OC)CCc1cc2c(cc1-3)OCO2.O.O.O.O [BJ, berberine-ibuprofen]
- Tbk1 mRNA expression in BAT (TBK1): had no effect
- mRNA level of TBK1 (Tbk1) in eWAT (TBK1): significantly reduced
- the expression of IKKε in BAT of db/db mice (IKKε; db/db+BJ 75mg/kg): 0.441 U/g and 0.458 U/g and 0.427 U/g and 0.409 U/g and 0.371 U/g and 0.436 U/g
- the expression of IKKε in BAT of db/db mice (IKKε; db/db+BJ 150mg/kg): 0.429 U/g and 0.4 U/g and 0.314 U/g and 0.335 U/g and 0.348 U/g and 0.398 U/g
- IKKε activity and expression levels in BAT (IKKε; db/db mice, both doses of BJ): had no effect

From publication PMC9374667 (Communications Biology, 2022)
